Source: patent US9763944B2 (Novartis AG, priority 2008, dated 2017)

Conditions: GIST patients, 400 or 600 mg/day oral
Experimental: METHODS: The IM plasma levels were analyzed in a subset of patients (n=73) for whom PK data on day 1 and at steady state (Day 29) was available (n=34 and 39 for 400 and 600 mg/day, respectively). The effect of patients demographics and blood chemistry parameters on IM PK was evaluated using a population PK approach. A relationship between IM plasma exposure and clinical outcome was explored by grouping patients into quartiles according to IM trough levels (Cmin). The clinical outcome parameters evaluated include overall objective responses (OOR=CR+PR+SD), time to progression (TTP), and KIT mutations.

Cc1ccc(NC(=O)c2ccc(CN3CCN(C)CC3)cc2)cc1Nc1nccc(-c2cccnc2)n1 [imatinib, N-{5-[4-(4-methyl-piperazino-methyl)-benzoylamido]-2-methylphenyl}-4-(3-pyridyl)-2-pyrimidine-amine]
inter-patient variability in IM exposure: large inter-patient variability
